{"source": "patent US8871492B2", "about": "“Anti-dementia substance from Hericium erinaceum and method of extraction” (priority 2008, dated 2014)", "tested_on": "Aβ1-40-induced AD rats", "test": "Morris Water Maze Test on Aβ1-40-induced AD rats", "type": "in vivo, Sprague-Dawley male rats", "settings": "for Arrival Time of Platform: Donepezil 1 mg/kg by stomach tube once per day", "method": "The control group was injected with 5 μL of saline. […] From the fourth week after the administration, learning and memory-related behavior was assessed using the Morris Water Maze Test on ten rats arbitrarily-chosen from each group once a day for one week (from day 1 to day 6 the time to arrive at the platform is measured, and on day 7 the platform is removed and the frequency to cross (pass by) the platform location is counted). After completing the behavioral test, the rats were sacrificed. The cerebral tissues separated from half of the rats of each group were used for pathological examination, and the olfactory bulb, hippocampus, locus ceruleus, and cerebral cortex from another half were used to determine the NGF content with enzyme-linked immunosorbent assay (ELISA).", "note": "Where “and” joins values, the source holds several entries; their conditions need not be identical. Identical values can stand only once."}
{"compound": "COc1cc2c(cc1OC)C(=O)C(CC1CCN(Cc3ccccc3)CC1)C2", "note": "(centres unmarked) [Donepezil]", "values": [{"measurement": "Arrival Time of Platform", "setting": "Day 1, n = 10", "value": "77.03 ± 29.92", "unit": "s"}, {"measurement": "Arrival Time of Platform", "setting": "Day 2, n = 10", "value": "39.10 ± 26.36", "unit": "s"}, {"measurement": "Arrival Time of Platform", "setting": "Day 3, n = 10", "value": "34.98 ± 23.42", "unit": "s"}, {"measurement": "Arrival Time of Platform", "setting": "Day 4, n = 10", "value": "31.10 ± 23.26", "unit": "s"}, {"measurement": "Arrival Time of Platform", "setting": "Day 5, n = 10", "value": "30.00 ± 21.11", "unit": "s"}, {"measurement": "Arrival Time of Platform", "setting": "Day 6, n = 10", "value": "28.43 ± 23.45", "unit": "s"}, {"measurement": "Frequencies of crossing platform location within two minutes", "setting": "day 7, individual rats No. 1-10, Donepezil 1 mg/kg", "value": "14 and 11 and 22 and 19 and 10 (2×) and 13 and 8 and 6 and 7"}, {"measurement": "Frequencies of crossing platform location within two minutes, Mean ± SD", "setting": "day 7, n = 10, Donepezil 1 mg/kg", "value": "12.00 ± 5.16"}]}
